Source: patent US20260274922A1, “SYNTHETIC ESTROGEN RECEPTOR (ER)-DERIVED PEPTIDE” (THE TEXAS A&M UNIVERSITY SYSTEM, priority 2023, published 2026)
Each block holds one molecule with its values, some of them ahead of it. Where a SMILES comes first, the peptide text is derived from it. The star is where a group is joined. Cbz = O=C(OCc1ccccc1)*

Tests used:
Format in all cases: cell-based
ERα mRNA = ERα mRNA expression in mouse primary hepatocytes treated with insulin; details: 200 nM insulin for 12 hours
Text: FIGS. 8A and 8B show the hyperinsulinemia decreases ERα mRNA expression in mouse primary hepatocytes. […] Data are presented as mean±SEM. * p<0.05, One-way ANOVA.
RNA extraction and quantitative real-time PCR. Total RNA was extracted from livers or primary hepatocytes using TRIzol (Invitrogen, Thermo Fisher Scientific), purified with chloroform, 80% ethanol, isopropanol, and RNA column, eluted with RNase free water, and reverse transcribed into cDNA using iScript Reverse Transcription Supermix (Bio-Rad, Hercules, CA). Quantitative real-time PCR (qPCR) was conducted using SsoAdvanced Universal SYBR Green Supermix (Bio-Rad, Hercules, CA) on CFX384 real-time PCR detection system (Bio-Rad, Hercules, CA). Q-PCR started with 95° C. incubation for 3 min, followed by 39 cycles of 95° C. for 5 s and 60° C. for 30 s. The threshold cycle (CT) values were obtained and used to calculate the relative transcriptional level of target genes by 2^−ΔΔCT method with Cyclophilin (Cyp) as an internal control. […].

IRS1 [1] = experiment: IRS1 protein levels in ERα deficient mouse primary hepatocytes treated with MG132; details: ERαLivKO hepatocytes, 10 μM MG132 for 3 hours
Description: Representative blots are shown. […] Co-immunoprecipitation was performed.
Primary hepatocytes isolation and cell culture. Primary hepatocytes were isolated. Male mice at age of 8-12 weeks were infused with a perfusion buffer A (calcium and magnesium-free HBSS supplemented with 10 mM HEPES, 50 mM EGTA, 1 mM glucose, and 1% penicillin-streptomycin, pH 7.4) through portal vein for 6-8 min. Then perfusion buffer A was changed to buffer B (calcium and magnesium-free HBSS supplemented with 10 mM HEPES, 1 mM CaCl2), 1 mM glucose, 1% penicillin-streptomycin, and 0.5 mg/mL collagenase II, pH 7.4). […] Liver cells were suspended and passed through a 70 μm cell strainer, followed by centrifuge at 1700 rpm for 2 min. Pellets were resuspended with Percoll at final concentration of 36% and centrifuged at 1800 rpm for 6 min. The hepatocyte pellet was washed and suspended with DMEM supplemented with 10% FBS and 1% penicillin-streptomycin in collagen-coated plates. The HepG2 cell line was purchased from Abcam and cultured with DMEM medium supplemented with 10% FBS and 1% penicillin-streptomycin in collagen-coated plates. The human embryo kidney (HEK) 293 cell line was purchased from Sigma and cultured with DMEM medium supplemented with 10% FBS and 1% penicillin-streptomycin. […]
(§1) Co-immunoprecipitation and Western blotting analysis. […] Protein bands were detected using a ChemiDoc image system.

HepG2 cells (IRS1, pAKT) = experiment: Gain-of-function of ERα domains on insulin sensitivity in HepG2 cells; details: overexpression
Description: Primary hepatocytes isolation and cell culture. Primary hepatocytes were isolated. Male mice at age of 8-12 weeks were infused with a perfusion buffer A (calcium and magnesium-free HBSS supplemented with 10 mM HEPES, […], 1 mM glucose, and 1% penicillin-streptomycin, pH 7.4) through portal vein for 6-8 min. Then perfusion buffer A was changed to buffer B (calcium and magnesium-free HBSS supplemented with 10 mM HEPES, 1 mM CaCl2), 1 mM glucose, 1% penicillin-streptomycin, and 0.5 mg/mL collagenase II, pH 7.4). […] Liver cells were suspended and passed through a 70 μm cell strainer, followed by centrifuge at 1700 rpm for 2 min. Pellets were resuspended with Percoll at final concentration of 36% and centrifuged at 1800 rpm for 6 min. The hepatocyte pellet was washed and suspended with DMEM supplemented with 10% FBS and 1% penicillin-streptomycin in collagen-coated plates. The HepG2 cell line was purchased from Abcam and cultured with DMEM medium supplemented with 10% FBS and 1% penicillin-streptomycin in collagen-coated plates. The human embryo kidney (HEK) 293 cell line was purchased from Sigma and cultured with DMEM medium supplemented with 10% FBS and 1% penicillin-streptomycin. FBS-free DMEM medium was used to culture cells during the experiments.
as §1

IRS1 [2] = molecular target: T1, IRS1 (Homo sapiens, UniProt P35568); experiment: Immunofluorescence staining in HEK293T cells
T1 sequence (P35568 1-1242): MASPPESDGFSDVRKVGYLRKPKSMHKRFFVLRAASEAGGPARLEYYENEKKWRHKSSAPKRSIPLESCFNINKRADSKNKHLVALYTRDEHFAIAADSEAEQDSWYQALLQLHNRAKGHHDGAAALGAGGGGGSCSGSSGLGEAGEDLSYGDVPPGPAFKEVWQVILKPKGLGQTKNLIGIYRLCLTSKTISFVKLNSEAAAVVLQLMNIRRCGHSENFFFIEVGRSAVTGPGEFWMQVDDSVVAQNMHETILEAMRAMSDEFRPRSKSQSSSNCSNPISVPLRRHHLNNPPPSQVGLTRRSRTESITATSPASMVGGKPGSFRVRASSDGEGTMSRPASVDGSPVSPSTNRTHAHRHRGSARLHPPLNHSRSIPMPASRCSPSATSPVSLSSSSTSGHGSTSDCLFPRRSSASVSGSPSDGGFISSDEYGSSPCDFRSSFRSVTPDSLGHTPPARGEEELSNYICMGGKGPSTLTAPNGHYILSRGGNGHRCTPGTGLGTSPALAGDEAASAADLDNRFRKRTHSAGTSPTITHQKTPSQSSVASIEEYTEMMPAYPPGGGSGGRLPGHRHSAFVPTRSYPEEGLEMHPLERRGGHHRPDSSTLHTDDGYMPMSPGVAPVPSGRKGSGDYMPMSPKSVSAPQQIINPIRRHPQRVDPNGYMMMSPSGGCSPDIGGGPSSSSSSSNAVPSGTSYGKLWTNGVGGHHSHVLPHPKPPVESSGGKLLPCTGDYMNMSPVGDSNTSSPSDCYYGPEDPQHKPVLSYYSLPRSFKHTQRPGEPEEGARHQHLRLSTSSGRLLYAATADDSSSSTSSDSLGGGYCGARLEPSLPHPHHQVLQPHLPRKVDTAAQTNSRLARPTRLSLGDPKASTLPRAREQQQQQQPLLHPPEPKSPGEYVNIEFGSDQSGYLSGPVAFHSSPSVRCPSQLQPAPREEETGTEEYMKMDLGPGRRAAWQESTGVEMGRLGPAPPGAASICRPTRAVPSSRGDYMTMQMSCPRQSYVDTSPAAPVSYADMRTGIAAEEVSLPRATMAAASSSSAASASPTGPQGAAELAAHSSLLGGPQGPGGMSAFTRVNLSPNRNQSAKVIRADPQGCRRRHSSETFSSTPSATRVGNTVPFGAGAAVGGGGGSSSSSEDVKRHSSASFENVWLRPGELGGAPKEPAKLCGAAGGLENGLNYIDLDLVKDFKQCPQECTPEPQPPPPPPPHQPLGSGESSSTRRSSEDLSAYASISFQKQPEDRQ
Description: Immunofluorescence staining. Cells were fixed with 4% formaldehyde solution, followed by incubation with blocking buffer (1×PBS/5% normal serum/0.3% Triton X-100) for 1 h. After rinsing three times using PBS, cells were incubated with primary antibodies overnight at 4° C. Cells were washed with PBS and incubated with secondary antibodies (anti-mouse Alexa Flour 594 Conjugated) at room temperature 1-2 h. Cells were covered with DAPI-contained mounting medium. Fluorescent signal was observed using Confocal microscopy (Leica).

Molecule: insulin: insulin used to treat primary hepatocytes (200 nM)
mRNA expression levels of ERα (ERα mRNA): significantly decreased

Molecule: CC(C)C[C@@H](C=O)NC(=O)[C@H](CC(C)C)NC(=O)[C@H](CC(C)C)NC(=O)OCc1ccccc1 [MG132] (Cbz-Leu-Leu-Leu-aldehyde)
IRS1 protein levels (IRS1 [1]): significantly increased

colocalization with IRS1 (IRS1 [2]): colocalization with IRS1
Molecule: MTMTLHTKASGMALLHQIQGNELEPLNRPQLKIPLERPLGEVYLDSSKPAVYNYPEGAAY (Description of sequence: ER-alpha amino acids 1-60) [ERα 1-60, ERα amino acids 1-60 domain]
enhancement of insulin-stimulated AKT phosphorylation (HepG2 cells (IRS1, pAKT)): ~ 26%
increase in IRS1 (HepG2 cells (IRS1, pAKT)): ~ 80%

colocalization with IRS1 (IRS1 [2]): colocalization with IRS1
Molecule: TKASGMALLHEPLNRPQLKIPLERDSSKPAVYNY (Description of sequence: AF1 domain portion sequence) [34-amino acid-peptide, overexpressed in cells]
enhancement of insulin-stimulated AKT phosphorylation (HepG2 cells (IRS1, pAKT)): ~ 26%
increase in IRS1 (HepG2 cells (IRS1, pAKT)): ~ 80%

B1: ERα 60-280: ERα 60-280 domain, overexpressed in HepG2 cells (protein, UniProt P03372 60-280, looked up, fragment)
chain: YEFNAAAAANAQVYGQTGLPYGPGSEAAAFGSNGLGGFPPLNSVSPSPLMLLHPPPQLSPFLQPHGQQVPYYLENEPSGYTVREAGPPAFYRPNSDNRRQGGRERLASTNDKGSMAMESAKETRYCAVCNDYASGYHYGVWSCEGCKAFFKRSIQGHNDYMCPATNQCTIDKNRRKSCQACRLRKCYEVGMMKGGIRKDRRGGRMLKHKRQRDDGEGRGEV
IRS1 protein levels (HepG2 cells (IRS1, pAKT)): no significant effect
insulin-induced AKT phosphorylation (HepG2 cells (IRS1, pAKT)): no significant effect
